The source of these data is patent publication US20090012088A1 (priority 2005, published 2009).

“Also recorded” adds a separate entry of the source. Read-outs that look alike come from different tables or passages of the source.

The test system of test [1] is PARG. Description: Table 2: small molecules tested for PARG inhibition activity (relative to PIP-1). It is filed as biochemical.
Another test relates to U-937 cells. Description: Protection against H2O2 treatment of U-937 cells (cell survival). Format: cell-based. Conditions: FIG. 13. On the procedure: We have made multiple derivatives of PIP-1; these compounds are shown below in Table 2 and in FIG. 11 and labeled Structures 1-39. The neuroprotective effects of structures 1-26 were tested in the cellular assay and compared to the neuroprotective effect of PIP-1 (FIG. 13).
PIP-1 and structures 1-26 were screened for protection against H2O2 treatment of U-937 cells FIG. 13.

In test [2] the test system is NAD^+ depletion in HL-60 cell lysate. Description: Whole cell assay screen: NAD+ depletion in H2O2-activated HL-60 cell lysate. Format: cell-based. How it is done: To identify a non-toxic, non-DNA intercalating, cell permeable small molecule inhibitor of PARG, a high-throughput screen is devised. Given the severe challenges in isolating enough of the PAR substrate for an in vitro screen directly for PARG inhibition, we develop a primary screen that utilizes cell lysates and, in particular, mammalian cell lysates. In this assay, HL-60 cells are treated with H2O2 to damage their DNA (which activates PARP-1) and then lyse the cells. In individual wells of a 384-well plate, this cell lysate is incubated with 22,000 different small molecules from an in-house compound collection; these compounds are either purchased (from ChemBridge Corp.) or collected from various sources at the University of Illinois. (28) NAD^+ levels are measured using a fluorescent method based on the chemical conversion of NAD^+ to a fluorescent product (29, 30) (FIG. 14A). The amount of NAD^+ consumed in each well is monitored, and any compounds that prevent NAD^+ consumption are classified “hits” in this primary screen.
Library screen: 12.5 μL of Lysing PARP buffer (50 mM Tris, 10 mM MgCl2, pH 8.0, 1% Triton X-100) containing 100 μM NAD^+ is added to each well of a 384-well plate. Library compounds at 10 mM in DMSO are transferred using a 384-well pin transfer device that delivers 0.1 μL. HL-60 cells are spun down at 200 g for 5 min. and resuspended in Lysing PARP buffer to a concentration of 8×10^6 cells/mL. 10 μL of a 30% H2O2 solution is added per mL of cells. 12.5 μL of the activated cell lysate is added to the plates. The plates are incubated for 60 min. at 37° C. The concentration of NAD^+ is then determined using a fluorescent assay^1. 10 μL of a 2 M KOH solution and 10 μL of a 20% acetophenone solution (in ethanol) is added to each well. The plate is then incubated at 4° C. for 10 min. 45 μL of a 88% formic acid solution was added to each well. The plate was then incubated for 5 min. in a 110° C. oven. Once the plate cools, the fluorescent intensity of each well is determined on a Criterion Analyst AD (Molecular Devices) with an excitation of 360 nm and an emission of 445 nm.

In test [3] the test system is neuronally differentiated PC-12 cells. Description: Protection from rotenone induced toxicity in neuronally differentiated PC-12 cells. Format: cell-based. How it is done: Rotenone is a complex I poison and is widely used in cell culture and animal models of PD. (20, 31, 32) To determine if PIP-1 protects cells from rotenone insult, PC-12 cells are neuronally differentiated (with neuronal growth factor β for 10 days) and then treated with 10 μM rotenone and a range of PIP-1 concentrations. After 72 hours, cell death is assessed using propidium iodide staining as measured by flow cytometry. […] To determine the features on PIP-1 that are important for PARG inhibition and cell protection, three derivatives are constructed that lacked key functionality (see FIG. 19 compounds labeled 3, 4 and 5).
Cell culture conditions: HL-60 and SK-N-SH cells are grown in RPMI 1640 media supplemented with 10% FBS and PC-12 cells are grown in RPMI 1640 media supplemented with 10% HS and 5% FBS. All cell lines are incubated at 37° C. in a 5% CO2, 95% air atmosphere. HL-60 cells are split every two to three days as needed and SK-N-SH cells are split when they reach approximately 90% confluency at a 1:6 ratio. SK-N-SH cells are differentiated by adding media containing 10 μM retinoic acid (in DMSO). Media is replaced every other day and cells are differentiated for a total of 12 days. PC-12 cells are differentiated by adding media containing 25 ng/mL Neuronal Growth Factro β. Media is replaced every other day and cells are differentiated for a total of 10 days. Differentiation is observed by microscopy.
Protection of Rotenone and MPP^+ induced toxicity in PC-12 and SK-N-SH cells: SK-N-SH and PC-12 cells are neuronally differentiated as described above. 10 μM rotenone, 10 μM MPP^+ and various concentrations of PIP-1 or its derivatives are added to the cells and incubated for 72 h. The cells are then washed in PBS and the viability is determined by adding propidium iodide to 1 μg/mL and measuring the fluorescent intensity of each cell by flow cytometry.

The target of test [4] is PARG (Bos taurus, UniProt O02776). Description: Inhibition of PARG activity in vitro (quantitation of free ADP-ribose with benzamidine, fluorescence). Format: biochemical. More on the design: purchased Biomol. On the procedure: PARG assay: Production and purification of PAR. PARP-1 (20 units) is added to 900 μL of PARP assay buffer containing 1 mM NAD^+ and 22.5 μg activated DNA. This reaction was run at 37° C. for 30 min and stopped by the addition of 300 μL of cold 100% trichloroacetic acid. The proteins thus precipitated are collected by centrifugation at 18,000 g for 30 min at 4° C. After removal of the supernatant, 1 mL of 1 M NaOH and 100 mM EDTA are added to the pellet and incubated for 2 h at 37° C. to cleave the PAR from the PARP protein acceptor. Then 9 mL of PAR buffer A (250 mM ammonium acetate, 6 M guanidinium HCl, 10 mM EDTA, pH 9.0) is added to the PAR and applied to a PROSEP-PB (Millipore) phenyl boronate column that is pre-equilibrated with PAR buffer A. The flowthrough is then reapplied to the column to ensure that all PAR is bound. The column is then washed with 25 mL of PAR buffer A, followed by 10 mL of PAR buffer B (1 M ammonium acetate and 1 mM EDTA, pH 9.0). The bound PAR is eluted with 4 mL of water collected in 1-mL fractions. Fractions containing PAR are pooled and concentrated. The concentration, measured as monomer, is determined by measuring the absorbance at 258 nm. PAR has an extinction coefficient of 13,500 cm^−1 at 258 nm.
Inhibition of PARG Activity: To determine the PARG IC50 values of the compounds, 39 μL of a 25.6 μM solution of PAR in PARG assay (50 mM KCl, 50 mM KH2PO4, pH 7.2) buffer and 1 μL of the compounds at varying concentrations (in PARG assay buffer) are added into the wells of a 384-well plate. The reaction is initiated by the addition of 10 μL of PARG (Biomol) at a concentration of 1 ng/ml (in PARG assay buffer), bringing the final concentration to […] and 20 μM PAR with varying concentrations of compounds in a total volume of 50 μL. The plate is incubated for 20 min at room temperature. The amount of free ADP-ribose hemiacetals is determined by the addition of 5 μL of an aqueous 8.5M KOH solution and 5 μL of an aqueous 850 μM benzamidine solution to each well. The plate is then incubated for 10 min in an oven set at 110° C. The plate is allowed to cool and then read on a Criterion Analyst AD with an excitation of 360 nm and an emission of 445 nm.

PARG (Bos taurus, UniProt O02776), sequence (O02776 whole entry): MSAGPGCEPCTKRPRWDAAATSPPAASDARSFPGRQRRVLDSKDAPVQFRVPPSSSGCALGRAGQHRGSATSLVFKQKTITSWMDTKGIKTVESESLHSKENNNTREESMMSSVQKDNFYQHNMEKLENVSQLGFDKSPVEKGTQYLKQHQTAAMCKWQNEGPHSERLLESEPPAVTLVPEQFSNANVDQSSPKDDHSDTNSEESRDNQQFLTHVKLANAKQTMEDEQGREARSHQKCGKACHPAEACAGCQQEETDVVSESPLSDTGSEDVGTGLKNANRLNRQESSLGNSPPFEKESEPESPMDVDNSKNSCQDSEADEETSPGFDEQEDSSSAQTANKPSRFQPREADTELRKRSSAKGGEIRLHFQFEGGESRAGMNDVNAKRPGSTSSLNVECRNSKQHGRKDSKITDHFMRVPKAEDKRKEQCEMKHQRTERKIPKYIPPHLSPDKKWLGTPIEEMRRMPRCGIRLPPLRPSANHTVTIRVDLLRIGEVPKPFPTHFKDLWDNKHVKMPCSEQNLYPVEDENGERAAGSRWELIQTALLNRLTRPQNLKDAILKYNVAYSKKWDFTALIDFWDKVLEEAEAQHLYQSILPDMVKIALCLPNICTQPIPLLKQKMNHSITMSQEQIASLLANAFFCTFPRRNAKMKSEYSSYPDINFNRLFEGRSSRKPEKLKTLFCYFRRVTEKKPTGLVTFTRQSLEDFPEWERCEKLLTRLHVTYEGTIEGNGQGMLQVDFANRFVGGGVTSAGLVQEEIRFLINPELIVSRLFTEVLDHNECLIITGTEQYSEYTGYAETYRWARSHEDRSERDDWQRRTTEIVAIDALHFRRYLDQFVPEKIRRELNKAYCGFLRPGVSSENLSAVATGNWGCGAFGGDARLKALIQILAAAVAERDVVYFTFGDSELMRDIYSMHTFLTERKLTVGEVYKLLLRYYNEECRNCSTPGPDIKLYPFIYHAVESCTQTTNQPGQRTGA

On to `CCCN(CCC)c1cnn(-c2ccccc2)c(=O)c1NC(C)=O` [Structure 26], for which the Activity entry with PARG [1] is given as “low”. In addition, in the test on U-937 cells, the “Protection of U-937 cells treated with H2O2 (activity compared to PIP-1)” value (shortened to “Protection … (activity compared to PIP-1)”) is “low or no activity”.
On the same counts, the results for “4-Amino-5-dimethylamino-2-phenyl-2H-pyridazin-3-one [PIP-1]” are “moderate” and “low or no activity”.
For the compound `Nc1c(N2CCCC2)cnn(-c2ccccc2)c1=O` [Structure 17], in the test on PARG [1], the Activity result is on record as “moderate”. For the same compound, in the test on U-937 cells, the “Protection … (activity compared to PIP-1)” value is “moderate activity”.
`CC(=O)Nc1c(N2CCCC2)cnn(-c2ccccc2)c1=O` [Structure 18]: the Activity entry in the test on PARG [1] is recorded as “moderate”. Moreover, in the test on U-937 cells, the “Protection … (activity compared to PIP-1)” value was “moderate activity”.
For the compound `CN(C)c1cnn(C)c(=O)c1N` [compound 6, 4-Amino-5-dimethylamino-2-methyl-2H-pyridazin-3-one], the “Inhibition of NAD+ depletion in the whole cell assay” value in test [2] is “do not inhibit NAD^+ depletion”. Also, the “Protection of rotenone-treated neuronally differentiated PC-12 cells (in words)” value is “inactive” in test [3] and “do not protect” in test [3] (listed as analogue 6). Also, the “PARG inhibition in vitro (in words)” value on PARG [4] is “inactive”; at PARG [4] (listed as analogue 6) it was “do not inhibit NAD^+ depletion or PARG activity”.
In the case of `CCCCN(CC)c1cnn(-c2ccccc2)c(=O)c1N` [Structure 15], in the test with PARG [1], the Activity result was “moderate”. Also, the “Protection … (activity compared to PIP-1)” value in the test with U-937 cells was “moderate activity”.
Take `Nc1c(N2CCCCC2)cnn(-c2ccccc2)c1=O` [Structure 19]: in the test on PARG [1], the Activity result is “good”. In addition, the “Protection … (activity compared to PIP-1)” value with U-937 cells was “activity similar or better than PIP-1”.
For `Nc1c(N2CCOCC2)cnn(-c2ccccc2)c1=O` [Structure 21] the same measures were “good” and “activity similar or better than PIP-1”.
For `CN(C)c1cnn(C)c(=O)c1N` [Structure 39], the Activity result in the test on PARG [1] was “low”.
Turning to `O=c1c(Cl)c(O)cnn1-c1ccccc1` [entry 3, reference compound], in the test on PARG [1], the Activity result is “low”. In the test with U-937 cells, the “Protection … (activity compared to PIP-1)” value is “low or no activity”.
`CCN(CC)c1cnn(-c2ccccc2)c(=O)c1NC(C)=O` [Structure 25]: the Activity result with PARG [1] is recorded as “moderate”. Besides, in the test with U-937 cells, the “Protection … (activity compared to PIP-1)” value is “moderate activity”.
As for `CCCCCCNc1c(Cl)cnn(-c2ccccc2)c1=O` [Structure 7], the Activity entry in the test on PARG [1] is “low”.
As for `CCCCN(CCCC)c1cnn(-c2ccccc2)c(=O)c1NC(C)=O` [Structure 14], in the test on PARG [1], the Activity entry is given as “low”. In addition, in the test on U-937 cells, the “Protection … (activity compared to PIP-1)” value is “low or no activity”.
On to `CCCCN(CC)c1cnn(-c2ccccc2)c(=O)c1NC(C)=O` [Structure 16], for which, in the test with PARG [1], the Activity entry is “low”. For the same compound, the “Protection … (activity compared to PIP-1)” value in the test with U-937 cells is “low or no activity”.
For the compound `CN(C)c1ccn(-c2ccccc2)c(=O)c1N` [compound 4, 3-Amino-4-dimethylamino-1-phenyl-1H-pyridin-2-one], the “Inhibition of NAD+ depletion in the whole cell assay” value in test [2] is on record as “inhibit NAD^+ depletion”. For the same compound, the “Protection of rotenone-treated neuronally differentiated PC-12 cells (in words)” value in test [3] (listed as lactam 4) is “virtually identical PARG inhibition and cell protection properties as PIP-1; also recorded: protect”. Further, at PARG [4] (listed as lactam 4), the “PARG inhibition in vitro (in words)” value was “virtually identical PARG inhibition and cell protection properties as PIP-1; also recorded: inhibit PARG activity in vitro”.
For the compound `CC(=O)Nc1c(Cl)cnn(-c2ccccc2)c1=O` [Structure 9], the Activity result with PARG [1] is reported as “low”.
`CC(=O)N(C(C)=O)c1c(Cl)cnn(-c2ccccc2)c1=O` [Structure 10]: the Activity result with PARG [1] was “low”.
Regarding `Nc1c(Cl)cnn(-c2ccccc2)c1=O` [Structure 8], the Activity result in the test with PARG [1] is “low”.
Regarding `CC(=O)Nc1c(N2CCCCC2)cnn(-c2ccccc2)c1=O` [Structure 20], the Activity entry in the test on PARG [1] is reported as “good”. Also, the “Protection … (activity compared to PIP-1)” value with U-937 cells was “activity similar or better than PIP-1”.
In the case of `CCN(CC)c1cnn(-c2ccccc2)c(=O)c1N` [Structure 11], the Activity result with PARG [1] is “good”. The “Protection … (activity compared to PIP-1)” value in the test with U-937 cells is reported as “activity similar or better than PIP-1”.
For the compound `CCCN(CCC)c1cnn(-c2ccccc2)c(=O)c1N` [Structure 12], the Activity result in the test with PARG [1] is listed as “good”. Besides, in the test on U-937 cells, the “Protection … (activity compared to PIP-1)” value is given as “activity similar or better than PIP-1”.
In the case of `CCCCN(CCCC)c1cnn(-c2ccccc2)c(=O)c1N` [Structure 13], the Activity result in the test on PARG [1] is on record as “good”. Further, the “Protection … (activity compared to PIP-1)” value in the test on U-937 cells is recorded as “activity similar or better than PIP-1”.
As to `CC(=O)Nc1c(N2CCOCC2)cnn(-c2ccccc2)c1=O` [Structure 22], the Activity entry with PARG [1] is “moderate”. Besides, in the test with U-937 cells, the “Protection … (activity compared to PIP-1)” value is recorded as “moderate activity”.
Turning to `CC(=O)Nc1c(N(C)C)cnn(-c2ccccc2)c1=O` [Structure 24], in the test with PARG [1], the Activity result was “moderate”. Also, the “Protection … (activity compared to PIP-1)” value with U-937 cells is “moderate activity”.
